Test results taken from US20220220106A1, “QUINOLINE COMPOUNDS AND PHARMACEUTICAL COMPOSITIONS AND USES THEREOF” (Academy of Military Medical Sciences, priority 2019, published 2022).

How the values were obtained:
RD cells = experiment: Detection of cytotoxicity in RD cells (CellTiter-Glo); type: cell-based; settings: 4 days, CellTiter-Glo, median toxic dose
Description: Detection of Cytotoxicity:
(1) The compound to be tested was diluted to a concentration of 400 μM with the cell maintenance solution, and 3-fold gradient dilution was carried out to obtain 10 concentrations in total.
(2) The diluted compound was added to a 96-well plate with white wall and transparent bottom, with 100 μL per well. An equal volume of the cell maintenance solution was added to the cell control group.
(3) RD cells were inoculated into the above 96-well plate at a concentration of 1*10^5/mL, with 100 μL per well, to reach a final volume of 200 μL per well, and the final concentration of drug was 0.5 times the pretreatment concentration.
(4) The RD cells were cultured at 37° C. for 4 days for testing.
(5) The Buffer of CellTiter-Glo® luminescent cell viability assay reagent was mixed with the substrate in the dark to prepare a working solution.
(§1) (6) The culture medium in the plate was discarded, the plate was dried by patting, 100 μL of the detection reagent was added to each well, and the 96-well plate was shaken on an orbital shaker for 4 minutes to induce cell lysis. After keeping in the dark and subjecting to signal stabilization for 15 minutes, the chemiluminescence unit was detected, and the plate reading program was performed according to the CellTiter-Glo preset program.
(§2) The formula for calculating the inhibition rates of drug at different dilution degrees was as follows: inhibition rate (%)=(average value of cell control group−value of experimental group)/(average value of cell control group−minimum value of experimental group)*100
(§3) The inhibition rate-concentration curve was fitted to S-curve by using origin8.0 software, and the IC50 value of the compound to be tested was calculated. The same method was used to calculate the TD50 value, and the selection index SI=TD50/IC50 was calculated according to the half maximal inhibitory concentration IC50 and the median toxic dose TD50.

[1] = tested on: Enterovirus 71 (EV71) H strain; experiment: In vitro anti-EV71 activity (antiviral activity in RD cells, CellTiter-Glo); type: cell-based; settings: for IC50: Enterovirus A, 96 h, EV71 H strain, RD cells, 4 days, CellTiter-Glo, read-out: IC50; for in vitro anti-EV71 activity, in words: EV71, RD cells
Description: According to the mass and molecular weight of the compound to be tested, the compound to be tested was dissolved to 100 mM (mmol/L) with DMSO.
Detection of Antiviral Activity:
(1) First, the compound to be tested was diluted to 800 μM with cell maintenance solution (DMEM+2% FBS, Gibco, catalog numbers: 11995-065, 1600-044), and three-fold gradient dilution was performed to prepare 10 concentrations in total. The diluted compound was added to a 96-well plate with white wall and transparent bottom, 50 μl per well. To both the cell control group and the virus control group, an equal volume of the cell maintenance solution was added.
(2) EV71 virus (purchased from ATCC) was taken out from the −80° C. refrigerator and equilibrated to room temperature.
(3) The virus seed was diluted with a virus growth solution (DMEM+2% FBS, Gibco, catalog numbers: 11995-065, 1600-044) to 100TCID50, the diluted virus seed was added to the 96-well plate of (1), with […] per well. The same volume of the virus growth solution was added to the cell control group.
(4) RD cells (purchased from ATCC) were inoculated at a concentration of 1*10^5/mL into the 96-well plate of (1), with 100 μL per well, to reach a final volume of 200 μL per well. The final concentration of drug was 0.25 times the initial concentration.
(5) RD cells were cultured at 37° C. for 4 days for testing.
(6) The Buffer of CellTiter-Glo® luminescent cell viability assay reagent (Promega) was mixed with the substrate in the dark to prepare a working solution.
as §1, with “(7)” for “(6)”, “detected by using MD5 microplate reader (Molecular Devices),” for “detected,”
The inhibition rate-concentration curve was fitted to S-curve by using origin8.0 software to calculate the IC50 value of the compound to be tested.
as §2, §3

Row | melting point | IC50 [1] | Compound | TD50 (RD cells) | in vitro anti-EV71 activity, in words [1]
1 | 173 to 176 °C | > 200 µM | CC(=O)/C=C/c1cnc2ccc(-c3cnc4ccccc4c3)cc2c1Nc1cccc(C(F)(F)F)c1 [HTL-3-25, (E)-6-(3-quinolyl)-4-[3-(trifluoromethyl)phenyl]aminoquinoline-3-butenone] | 0.68 ± 0.21 µM | 
2 | 162 to 164 °C | > 200 µM | CC(=O)/C=C/c1cnc2ccc(-c3ccc(F)cc3F)cc2c1Nc1cccc(C(F)(F)F)c1 [HTL-3-33, (E)-6-(2,4-difluoro)phenyl-4-[3-(trifluoromethyl)phenyl]aminoquinoline-3-butenone] | 0.72 ± 0.66 µM | 
3 | 218 to 222 °C | > 200 µM | CC(=O)/C=C/c1cnc2ccc(-c3ccc(O)cc3)cc2c1Nc1cccc(C(F)(F)F)c1 [HTL-3-11, (E)-6-(4-hydroxy)phenyl-4-[3-(trifluoromethyl)phenyl]aminoquinoline-3-butenone] | >200 µM | 
4 | 149 to 150 °C | > 200 µM | CCCCc1ccc(-c2ccc3ncc(/C=C/C(C)=O)c(Nc4cccc(C(F)(F)F)c4)c3c2)cc1 [HTL-3-42, (E)-6-(4-butyl)phenyl-4-[3-(trifluoromethyl)phenyl]aminoquinoline-3-butenone] | 0.96 ± 0.15 µM | 
5 | 254 °C | > 200 µM | CCOc1ccc(-c2ccc3ncc4oc(=O)n(-c5cccc(C(F)(F)F)c5)c4c3c2)cc1 [HTL-5-27, 8-(4-ethoxy)phenyl-1-[3-(trifluoromethyl)phenyl]oxazolo[5,4-c]quinolin-2(1H)-one] | >200 µM | 
6 | 142 to 146 °C | 0.09 ± 0.01 µM | C=CCNc1ccc(-c2ccc3ncc4ccc(=O)n(-c5cccc(C(F)(F)F)c5)c4c3c2)cn1 [HTL-7-28, 9-[3-(6-allylamino)pyridyl]-2-oxo-1-[3-(trifluoromethyl)phenyl]-1,2-dihydrobenzo[h][1,6]naphthyridine] | 0.23 ± 0.01 µM | 
7 | 175 to 177 °C | 7.14 ± 3.21 µM | CC(=O)Nc1ccc(Nc2ccc3ncc4ccc(=O)n(-c5cccc(C(F)(F)F)c5)c4c3c2)cc1 [HTL-6-27, 9-(4-acetylaminophenyl)imino-2-oxo-1-[3-(trifluoromethyl)phenyl]-1,2-dihydrobenzo[h][1,6]naphthyridine] | 10.65 ± 0.57 µM | moderate activity
8 | 197 to 199 °C | > 200 µM | CC(=O)/C=C/c1cnc2ccc(-c3ccc(Cl)cc3)cc2c1Nc1cccc(C(F)(F)F)c1 [HTL-3-37, (E)-6-(4-chloro)phenyl-4-[3-(trifluoromethyl)phenyl]aminoquinoline-3-butenone] | 1.88 ± 0.46 µM | 
9 | 143 to 144 °C | > 200 µM | CC(=O)/C=C/c1cnc2ccc(-c3ccc(C(C)C)cc3)cc2c1Nc1cccc(C(F)(F)F)c1 [HTL-3-39, (E)-6-(4-isopropyl)phenyl-4-[3-(trifluoromethyl)phenyl]aminoquinoline-3-butenone] | 1.75 ± 0.73 µM | 
10 | 189 to 191 °C | > 200 µM | CC(=O)/C=C/c1cnc2ccc(-c3ccc(C(F)(F)F)cc3)cc2c1Nc1cccc(C(F)(F)F)c1 [HTL-3-18, (E)-6-[4-(trifluoromethyl)phenyl]-4-[3-(trifluoromethyl)phenyl]aminoquinoline-3-butenone] | >200 µM | 
11 | 187 to 191 °C | > 200 µM | CC(=O)/C=C/c1cnc2ccc(-c3ccc(CC(C)C)cc3)cc2c1Nc1cccc(C(F)(F)F)c1 [HTL-3-41, (E)-6-(4-isobutyl)phenyl-4-[3-(trifluoromethyl)phenyl]aminoquinoline-3-butenone] | 0.99 ± 0.24 µM | 
12 | 151 to 154 °C | > 200 µM | CC(=O)/C=C/c1cnc2ccc(-c3ccoc3)cc2c1Nc1cccc(C(F)(F)F)c1 [HTL-3-22, (E)-6-(3-furyl)-4-[3-(trifluoromethyl)phenyl]aminoquinoline-3-butenone] | 1.55 ± 1.03 µM | 
13 | 283 to 286 °C | > 200 µM | O=c1oc2cnc3ccc(-c4ccc(Cl)cc4)cc3c2n1-c1cccc(C(F)(F)F)c1 [HTL-5-33, 8-(4-chloro)phenyl-1-[3-(trifluoromethyl)phenyl]oxazolo[5,4-c]quinolin-2(1H)-one] | >200 µM | 

More lines, now with the values behind:

Row | Compound | melting point | IC50 [1] | TD50 (RD cells) | in vitro anti-EV71 activity, in words [1]
14 | N#C/C=C/c1ccc2ncc3oc(=O)n(-c4cccc(C(F)(F)F)c4)c3c2c1 [HTL-6-32, (E)-8-(2-cyano-vinyl)-1-[3-(trifluoromethyl)phenyl]oxazolo[5,4-c]quinolin-2(1H)-one] | 235 to 237 °C | > 200 µM | >200 µM | 
15 | CCOC(=O)/C=C/c1ccc2ncc3oc(=O)n(-c4cccc(C(F)(F)F)c4)c3c2c1 [WSX-1-13, (E)-8-(2-ethoxycarbonyl-vinyl)-1-[3-(trifluoromethyl)phenyl]oxazolo[5,4-c]quinolin-2(1H)-one] | 221 to 224 °C | 100 ± 2.34 µM | 73.88 ± 3.52 µM | weak inhibitory activity
16 | COc1ccc(Nc2ccc3ncc4ccc(=O)n(-c5cccc(C(F)(F)F)c5)c4c3c2)cc1 [HTL-6-26, 9-(4-methoxyphenyl)imino-2-oxo-1-[3-(trifluoromethyl)phenyl]-1,2-dihydrobenzo[h][1,6]naphthyridine] | 138 to 140 °C | > 200 µM | >200 µM | 
17 | NC(=O)NC/C=C/c1ccc2ncc3ccc(=O)n(-c4cccc(C(F)(F)F)c4)c3c2c1 [HTL-7-25, (E)-9-[3-ureido-propenyl]-2-oxo-1-[3-(trifluoromethyl)phenyl]-1,2-dihydrobenzo[h][1,6]naphthyridine] | 150 to 151 °C | 0.41 ± 0.03 µM | 4.42 ± 0.45 µM | moderate inhibitory activity
18 | CCOC(=O)/C=C/c1ccc2ncc3ccc(=O)n(-c4cccc(C(F)(F)F)c4)c3c2c1 [HTL-7-26, (E)-9-[2-ethoxycarbonyl-vinyl]-2-oxo-1-[3-(trifluoromethyl)phenyl]-1,2-dihydrobenzo[h][1,6]naphthyridine] | 210 to 212 °C | 0.28 ± 0.2 µM | 1.29 ± 0.57 µM | moderate inhibitory activity
19 | N#Cc1cncc(-c2ccc3ncc4oc(=O)n(-c5cccc(C(F)(F)F)c5)c4c3c2)c1 [HTL-5-36, 8-[3-(5-cyano)pyridyl]-1-[3-(trifluoromethyl)phenyl]oxazolo[5,4-c]quinolin-2(1H)-one] | 262 to 263 °C | > 200 µM | 13.41 ± 0.18 µM | 
20 | O=c1ccc2cnc3ccc(Nc4ccc(F)nc4)cc3c2n1-c1cccc(C(F)(F)F)c1 [HTL-6-20, 9-[3-(6-fluoropyridyl)]imino-2-oxo-1-[3-(trifluoromethyl)phenyl]-1,2-dihydrobenzo[h][1,6]naphthyridine] | 232 to 233 °C | > 200 µM | 59.31 ± 3.98 µM | 
21 | O=c1ccc2cnc3ccc(Nc4ccc(Cl)nc4)cc3c2n1-c1cccc(C(F)(F)F)c1 [HTL-6-21, 9-[3-(6-chloropyridyl)]imino-2-oxo-1-[3-(trifluoromethyl)phenyl]-1,2-dihydrobenzo[h][1,6]naphthyridine] | 137 to 138 °C | > 200 µM | 20.75 ± 2.11 µM | 
